Series [1] in a line: in vivo. The conditions noted are these: mouse.
For a further series, the system named is tetrabenazine. Kind of series: Tetrabenazine antagonistic effect, oral administration. The format is in vivo. The note with it: for ED50: Mus musculus, read-out: Tetrabenazine antagonism, ED50. The protocol:
(§1) The tetrabenazine-reserpine antagonistic effect was investigated on mice in groups of ten animals each, at oral administration. The inhibition or suspension of the effect of the observed maximum dose was recorded, and the ED50 values were calculated on the basis of the dose vs. effect curves.

A further series concerns reserpine. The series can be described thus: Reserpine antagonistic effect, oral administration. It is filed as in vivo. The conditions noted are these: for ED50: Mus musculus, mice, oral administration, read-out: Reserpine antagonism ED50. The method, then: as §1
Another series concerns ischiadic nerve of rats. The series can be described thus: Local analgesic effect (method of Truant and d'Amato), motor paralysis and its duration. It is filed as in vivo. The note with it: for Duration, minutes (o.5%): 0.5 % concentration; for Duration, minutes (o.5%) / Duration, minutes (1.0%): duration of local analgesic effect (motor paralysis); for Duration, minutes (1.0%): 1.0 % concentration; for Relative efficiency: local analgesic effect, referred to Lidocaine. The source says: The local analgesic effect was investigated on the ischiadic nerve of rats by means of the method of Truant and d'Amato (Truant, A.P. and Wiedling, S.: Acta Chirurg. Scand. 116, 351 /1958/). Lidocaine served as reference substance. […]

Series [2] can be described thus: in vivo.
A further series concerns isolated rat-ileum. Kind of series: Spasmolytic effect on non-striated muscles in isolated rat-ileum (method of Brock et al.). The note with it: related to papaverine. The protocol:
The spasmolytic effect on non-striated muscles was determined in isolated rat-ileum by the method of Brock et al. (Brock, N., Geks, J. and Lorenz, D.: Arch. Exper. Path. u. Pharmacol. 215, 492 /1952/), applying papaverine as reference substance. In order to characterize the efficiency of an individual compound, the efficiency related to that of papaverine and the LD50 values observed on oral administration are shown in Table II.

A further series concerns nicotine lethality. The series can be described thus: Inhibition of nicotine lethality (method of Stone), oral administration. It is filed as in vivo, mice. The conditions noted are these: for Therapeutic index: LD50/ED50; for ED50: Mus musculus.
Where [3] appears, read: mice, oral administration, Table IV.
[4] abbreviates: mice, oral administration, Table III.
[5] abbreviates: inhibition of nicotine lethality.
The mark [6] stands for this setting: inhibition of nicotine lethality, mice, oral administration, read-out: ED50.
Where [7] appears, read: oral administration, Table II, read-out: LD50 p.o.

Structures are written as SMILES. Like-named read-outs stand apart in the source and are kept apart here. Where only a bound is given, the exact number is not on record here.

The compound `CN(C)CCC=C1c2ccccc2CCc2ccccc21` [Amitriptylin, reference compound] had an LD50 in the series “in vivo [1]” (setting [3]) of 225 mg/kg. The ED50 stood at 13 mg/kg in the series with tetrabenazine (po) and 65 mg/kg with reserpine. The Therapeutic index with tetrabenazine (tetrabenazine antagonism) turned out to be 17.3; in the series with reserpine (reserpine antagonism) it was 3.5.

`CN(C)CCCON=C1CCCCC1=Cc1ccccc1` [Example 1, 2-Benzal-1-(3'-dimethylaminopropoxyimino)-cyclohexane]: in the series with ischiadic nerve of rats, the “Duration, minutes (o.5%)” value came out at 99 min. Also, the “Duration, minutes (1.0%)” value with ischiadic nerve of rats was 115 min. In the series with ischiadic nerve of rats, the Relative efficiency turned out to be 1.7. Also, the LD50 in the series “in vivo [1]” (po) and in “in vivo [2]” (po) was 560 mg/kg each time. In addition, the ED50 in the series on tetrabenazine (po) was found to be 80 mg/kg; with reserpine, 27 mg/kg. In addition, the Therapeutic index is 7.0 with tetrabenazine (mouse, in vivo, po) and 20.7 in the series with reserpine (mouse, in vivo, po).

For `CCN(CC)CCON=C1CCCCC1=Cc1ccccc1` [Example 2, 2-Benzal-1-(2'-diethylaminoethoxyimino)-cyclohexane], in the series on ischiadic nerve of rats, the “Duration, minutes (o.5%)” value was 72 min; the “Duration, minutes (1.0%)” value came to 111 min; the Relative efficiency came out at 3.2. This compound also yielded a Relative efficiency in the series with isolated rat-ileum of 1.73. In the series “in vivo [2]” (po), this compound yielded an LD50 of 430 mg/kg.

Compound `NCCON=C1CCCCC1=Cc1ccccc1` [Example 4, 1-(2'-Aminoethoxyimino)-2-benzalcyclohexane] showed an LD50 in “in vivo [1]” (setting [4]) of 400 mg/kg. The same compound yielded a Therapeutic index with nicotine lethality (setting [5]) of 36.4. The ED50 in the series on nicotine lethality (setting [6]) came to 11 mg/kg.

For the compound `CN(C)CCON=C1CCCC1=Cc1ccccc1` [Example 5, 2-Benzal-1-(2'-dimethylaminoethoxyimino)-cyclopentane], in the series with ischiadic nerve of rats, the “Duration, minutes (o.5%)” value worked out at 68 min; the “Duration, minutes (1.0%)” value stood at 96 min; the Relative efficiency came to 1.8. The compound further displayed an LD50 in the series “in vivo [2]” (po) of 450 mg/kg.

As for `CCN(CC)CCON=C1CCCC1=Cc1ccccc1` [Example 7, 2-Benzal-1-(2'-diethylaminoethoxyimino)-cyclopentane], in the series on ischiadic nerve of rats, the “Duration, minutes (o.5%)” value is 94 min; the “Duration, minutes (1.0%)” value worked out at 127 min; the Relative efficiency is given as 1.8. In the series “in vivo [2]” (po), this compound gave an LD50 of 210 mg/kg.

As to `CC(C)N(CCON=C1CCCC1=Cc1ccccc1)C(C)C` [Example 8, 2-Benzal-1-(2'-diisopropylaminoethoxyimino)-cyclopentane], in the series with ischiadic nerve of rats, the “Duration, minutes (o.5%)” value came out at 66 min; the “Duration, minutes (1.0%)” value is 129 min; the Relative efficiency is 1.1. Besides, in the series “in vivo [2]” (po), the LD50 came to 450 mg/kg.

`CN(C)CCCON=C1CCCCCC1=Cc1ccccc1` [Example 10, 2-Benzal-1-(3'-dimethylaminopropoxyimino)-cycloheptane] showed a Relative efficiency in the series on isolated rat-ileum of 2.42. In addition, in “in vivo [2]” (setting [7]), the LD50 worked out at 550 mg/kg.

As to `CC(C)N(CCON=C1CCCCCC1=Cc1ccccc1)C(C)C` [Example 11, 2-Benzal-1-(2'-diisopropylaminoethoxyimino)-cycloheptane], the Relative efficiency in the series with isolated rat-ileum came out at 3.01. Also, in the series “in vivo [2]” (setting [7]), the LD50 amounted to 325 mg/kg.

Take `CN(C)CCCON=C1CCCCCC1=Cc1ccc(Cl)cc1` [Example 12, 1-(3'-Dimethylaminopropoxyimino)-2-(p-chlorobenzal)-cycloheptane]: in “in vivo [1]” (setting [4]), the LD50 was determined as 1450 mg/kg. This compound showed a Therapeutic index with nicotine lethality (setting [5]) of 36.3. Also, the ED50 in the series with nicotine lethality (setting [6]) is 40 mg/kg.

With `COc1ccc(C=C2CCCCCC2=NOCCCN(C)C)cc1` [Example 13, 1-(3'-Dimethylaminopropoxyimino)-2-(p-methoxybenzal)-cycloheptane], the LD50 in the series “in vivo [1]” (setting [3]) and in the series “in vivo [2]” (setting [7]) was 1000 mg/kg throughout. For the same compound, the ED50 with tetrabenazine (po) came out at 70 mg/kg; in the series on reserpine it was 80 mg/kg. For the same compound, the figures for the Therapeutic index in the series on tetrabenazine (tetrabenazine antagonism) and in the series on reserpine (reserpine antagonism) were 14.3 and 12.5, respectively. In the series on isolated rat-ileum, this compound registered a Relative efficiency of 1.96.

For the compound `COc1ccccc1C=C1CCCCC1=NOCCCN(C)C` [Example 15, 1-(3'-Dimethylaminopropoxyimino)-2-(o-methoxybenzal)-cyclohexane], in the series with ischiadic nerve of rats, the “Duration, minutes (o.5%)” value came out at 92 min; the “Duration, minutes (1.0%)” value was 160 min; the Relative efficiency is 1.7. In the series “in vivo [2]” (po), this compound gave an LD50 of 880 mg/kg.

As to `COc1ccccc1C=C1CCCCC1=NOCC(C)CN(C)C` (stereo not drawn) [Example 18, 1-(2'-Methyl-3'-dimethylaminopropoxyimino)-2-(o-methoxybenzal)-cyclohexane], in the series with isolated rat-ileum, the Relative efficiency turned out to be 2.43. Also, in “in vivo [2]” (setting [7]), the LD50 was 650 mg/kg.

Take `CN(C)CCCON=C1CCCCC1=Cc1ccc(Cl)cc1` [Example 19, 1-(Dimethylaminopropoxyimino)-2-(p-chlorobenzal)-cyclohexane]: in “in vivo [1]” (setting [3]), the LD50 was found to be 900 mg/kg. In addition, the ED50 in the series on tetrabenazine (po) is 34 mg/kg; in the series on reserpine, more than 180 mg/kg. In addition, the Therapeutic index with tetrabenazine (tetrabenazine antagonism) is 26.5; with reserpine (reserpine antagonism), 5.0.

`CN(C)CCCON=C1CCCCC1=Cc1ccccc1Cl` [Example 21, 1-(Dimethylaminopropoxyimino)-2-(o-chlorobenzal)-cyclohexane]: the LD50 in the series “in vivo [1]” (setting [3]) was found to be 1500 mg/kg. Also, the ED50 in the series on tetrabenazine (po) was 22 mg/kg; in the series on reserpine, more than 100 mg/kg. Further, the figures for the Therapeutic index in the series on tetrabenazine (tetrabenazine antagonism) and in the series on reserpine (reserpine antagonism) were 68.2 and 15.0, respectively.

In the series “in vivo [1]” (setting [3]), `CN(C)CCON=C1CCCC1=Cc1ccccc1` [Example 27, 2-Benzal-1-(2'-dimethylaminoethoxyimino)-cyclopentane] registered an LD50 of 600 mg/kg. Also, the values for the ED50 with tetrabenazine (po), in the series on nicotine lethality (po) and in the series with reserpine were 120 mg/kg, 47 mg/kg and 18 mg/kg, respectively. For the same compound, the Therapeutic index in the series on tetrabenazine (tetrabenazine antagonism) amounted to 5.0; with nicotine lethality (setting [5]) it was 12.8; in the series with reserpine (reserpine antagonism), 33.0.

For `CCN(CC)CC(=O)Nc1c(C)cccc1C` [Lidocaine, reference compound], in the series with ischiadic nerve of rats, the “Duration, minutes (o.5%)” value is 28 min and the “Duration, minutes (1.0%)” value turned out to be 52 min.

`COc1ccc(Cc2nccc3cc(OC)c(OC)cc23)cc1OC` [Papaverine, reference compound]: in the series “in vivo [2]” (setting [7]), the LD50 was 367 mg/kg.

Turning to `OC(CCN1CCCCC1)(c1ccccc1)C1CCCCC1` (stereo not drawn) [Trihexyphenidyl (Artane), Trihexyphenidyl, reference compound], in the series on nicotine lethality (setting [6]), the ED50 was found to be 40 mg/kg.
